What was measured:
EGFR^wt = molecular target: T1, EGFR^wt (Homo sapiens, UniProt P00533); test: kinase inhibitory activity test (ELISA), EGFR^WT; format: biochemical; conditions: ATP 5 μM, 1 hour at 37° C.
T1 construct: purchased Millipore
Experimental: (§1) The enzyme substrate poly (glutamic acid, tyrosine)4:1 (Sigma) was diluted with potassium-free PBS (10 mM sodium phosphate buffer, 150 mM NaCl, pH 7.2-7.4) to 20 μg/mL, plate coated with 125 μL/well, reacted for 12-16 hours at 37° C. After the liquid in the wells was discarded, the plates were washed three times with 200 μL/well of T-PBS (PBS containing 0.1% Tween-20), and each time for 5 minutes, and then dried for 1-2 hours in an oven at 37° C. 50 μL of ATP solution diluted with reaction buffer (50 mM HEPES pH 7.4, 50 mM MgCl2, 5 mM MnCl2, 0.2 mM Na3VO4, 1 mM DTT) was added into each well and the final concentration was 5 μM. The compounds were diluted with 1% DMSO to suitable concentrations and were added at 10 μL/well. […] The above reaction system was reacted for 1 hour at 37° C. shaking table (100 rpm). Control wells with no enzyme and control wells with DMSO solvent were set in each experiment. After the reaction was completed, the plates were washed three times with T-PBS. The anti-phosphotyrosine primary antibody PY99 (Santa Cruz) was added at 100 μL/well and the antibody was diluted with T-PBS containing BSA 5 mg/mL by 1:1000. The mixture was reacted for 0.5 h at 37° C. shaking table, the plates were washed three times with T-PBS. The secondary antibody which was horseradish peroxidase-labeled goat anti-mouse IgG was added at 100 μL/well (the antibody was diluted with T-PBS containing BSA 5 mg/mL by 1:2000). The mixture was reacted for 0.5 h at 37° C. shaking table, the plates were washed three times with T-PBS. 2 l/mL of OPD coloring solution was added at 100 μL/well (diluted with 0.1 M citric acid-sodium citrate buffer (pH=5.4) containing 0.03% H2O2) and dark reacted for 1 to 10 minutes at 25° C. 2 M H2SO4 was added at 50 μL/well to terminate the reaction. Reading was carried out with an adjustable wavelength microplate enzyme-labeled instrument SPECTRA MAX 190 at 490 nm wavelength.
(§2) The IC50 value was calculated by the four-parameter fitting of the suppression curve.

EGFR^T790M/L858R = molecular target: T2, EGFR^T790M/L858R (Homo sapiens, UniProt P00533, L858R/T790M); test: kinase inhibitory activity test (ELISA), EGFR^T790M/L858R; format: biochemical; conditions: for IC50: ELISA, ATP 5 μM, 1 hour at 37° C.
T2 construct: purchased Millipore
T2 sequence (P00533 25-1210 T790M/L858R): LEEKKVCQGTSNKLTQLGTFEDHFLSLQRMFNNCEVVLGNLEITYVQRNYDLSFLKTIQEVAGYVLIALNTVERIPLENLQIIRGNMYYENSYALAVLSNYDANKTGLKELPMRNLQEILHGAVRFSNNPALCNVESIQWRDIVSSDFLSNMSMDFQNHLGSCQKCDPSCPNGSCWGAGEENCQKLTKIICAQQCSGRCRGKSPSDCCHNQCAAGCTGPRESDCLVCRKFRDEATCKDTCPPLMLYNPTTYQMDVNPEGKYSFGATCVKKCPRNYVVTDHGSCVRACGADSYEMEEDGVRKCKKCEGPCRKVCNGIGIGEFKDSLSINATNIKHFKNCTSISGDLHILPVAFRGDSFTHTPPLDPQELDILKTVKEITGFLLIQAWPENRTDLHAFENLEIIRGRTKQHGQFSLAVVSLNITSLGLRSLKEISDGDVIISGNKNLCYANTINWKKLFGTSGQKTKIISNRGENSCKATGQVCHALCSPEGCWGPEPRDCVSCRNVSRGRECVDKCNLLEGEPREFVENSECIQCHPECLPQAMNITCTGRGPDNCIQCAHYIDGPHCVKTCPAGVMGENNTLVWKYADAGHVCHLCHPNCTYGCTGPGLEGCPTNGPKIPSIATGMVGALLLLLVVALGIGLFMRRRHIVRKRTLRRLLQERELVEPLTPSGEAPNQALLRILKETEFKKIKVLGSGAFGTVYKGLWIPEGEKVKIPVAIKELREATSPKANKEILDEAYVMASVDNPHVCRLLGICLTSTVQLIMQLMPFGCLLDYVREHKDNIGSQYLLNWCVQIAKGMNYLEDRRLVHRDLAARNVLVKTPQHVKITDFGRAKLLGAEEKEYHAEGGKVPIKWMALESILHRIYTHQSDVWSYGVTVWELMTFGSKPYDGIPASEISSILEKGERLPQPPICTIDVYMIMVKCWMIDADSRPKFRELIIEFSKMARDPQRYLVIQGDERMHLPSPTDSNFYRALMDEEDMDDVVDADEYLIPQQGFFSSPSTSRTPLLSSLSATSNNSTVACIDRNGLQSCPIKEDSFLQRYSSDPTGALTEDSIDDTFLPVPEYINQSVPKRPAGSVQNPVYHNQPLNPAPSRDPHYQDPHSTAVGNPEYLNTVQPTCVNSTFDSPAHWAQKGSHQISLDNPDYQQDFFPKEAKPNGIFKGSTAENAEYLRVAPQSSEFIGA
Experimental: as §1, §2

[1] = tested on: human non-small cell lung cancer NCI-H1975 cell line; test: SRB proliferation assay, NCI-H1975 cells; format: cell-based; conditions: NCI-H1975, SRB, 72 h, read-out: IC50 NCI-H1975
Experimental: (§3) Cell lines: human epidermal carcinoma A431 cell line and human non-small cell lung cancer NCI-H1975 cell line was purchased from the American Standard Biology Collection Center (ATCC).
Methods: sulforhodamine B (SRB) method, which was as follows: certain number of different tumor cells in logarithmic growth phase were inoculated on 96-well culture plates. After cultured for 24 h to cell adherence, different concentrations of the test compounds of the invention were added. Each concentration was provided with three wells, and a corresponding concentration of DMSO solvent control and a cell-free zeroing well were set. After the cells were treated with the medicine for 72 h, the culture medium was discarded and 100 μL of 10% pre-cooled trichloroacetic acid solution was added to fix the cells. After placed for 1 h at 4° C., it was washed for 5 times with distilled water and dried naturally. Then 100 μL SRB (4 mg/mL) (Sigma) solution was added and stained for 15 min at room temperature. The staining solution was discarded and washed for 5 times with 1% glacial acetic acid and dried. Finally, 150 μL of 10 mM Tris solution (pH 10.5) was added and the OD value was measured at 515 nm with adjustable wavelength microplate enzyme-labeled instrument (VERSAmax™, Molecular Device Corporation, Sunnyvale, Calif., USA). […] Based on the inhibitory effect of the 2-aminopyrimidine compounds on the growth of these cells, the half maximal inhibitory concentration (IC50) values were calculated, as shown in Table 2.

IGF-1R = molecular target: T3, IGF-1R (Homo sapiens, UniProt P08069); test: kinase inhibitory activity test (ELISA), IGF-1R; format: biochemical; conditions: ATP 5 μM, 1 hour at 37° C.
T3 construct: purchased Millipore
T3 sequence (P08069 31-1367): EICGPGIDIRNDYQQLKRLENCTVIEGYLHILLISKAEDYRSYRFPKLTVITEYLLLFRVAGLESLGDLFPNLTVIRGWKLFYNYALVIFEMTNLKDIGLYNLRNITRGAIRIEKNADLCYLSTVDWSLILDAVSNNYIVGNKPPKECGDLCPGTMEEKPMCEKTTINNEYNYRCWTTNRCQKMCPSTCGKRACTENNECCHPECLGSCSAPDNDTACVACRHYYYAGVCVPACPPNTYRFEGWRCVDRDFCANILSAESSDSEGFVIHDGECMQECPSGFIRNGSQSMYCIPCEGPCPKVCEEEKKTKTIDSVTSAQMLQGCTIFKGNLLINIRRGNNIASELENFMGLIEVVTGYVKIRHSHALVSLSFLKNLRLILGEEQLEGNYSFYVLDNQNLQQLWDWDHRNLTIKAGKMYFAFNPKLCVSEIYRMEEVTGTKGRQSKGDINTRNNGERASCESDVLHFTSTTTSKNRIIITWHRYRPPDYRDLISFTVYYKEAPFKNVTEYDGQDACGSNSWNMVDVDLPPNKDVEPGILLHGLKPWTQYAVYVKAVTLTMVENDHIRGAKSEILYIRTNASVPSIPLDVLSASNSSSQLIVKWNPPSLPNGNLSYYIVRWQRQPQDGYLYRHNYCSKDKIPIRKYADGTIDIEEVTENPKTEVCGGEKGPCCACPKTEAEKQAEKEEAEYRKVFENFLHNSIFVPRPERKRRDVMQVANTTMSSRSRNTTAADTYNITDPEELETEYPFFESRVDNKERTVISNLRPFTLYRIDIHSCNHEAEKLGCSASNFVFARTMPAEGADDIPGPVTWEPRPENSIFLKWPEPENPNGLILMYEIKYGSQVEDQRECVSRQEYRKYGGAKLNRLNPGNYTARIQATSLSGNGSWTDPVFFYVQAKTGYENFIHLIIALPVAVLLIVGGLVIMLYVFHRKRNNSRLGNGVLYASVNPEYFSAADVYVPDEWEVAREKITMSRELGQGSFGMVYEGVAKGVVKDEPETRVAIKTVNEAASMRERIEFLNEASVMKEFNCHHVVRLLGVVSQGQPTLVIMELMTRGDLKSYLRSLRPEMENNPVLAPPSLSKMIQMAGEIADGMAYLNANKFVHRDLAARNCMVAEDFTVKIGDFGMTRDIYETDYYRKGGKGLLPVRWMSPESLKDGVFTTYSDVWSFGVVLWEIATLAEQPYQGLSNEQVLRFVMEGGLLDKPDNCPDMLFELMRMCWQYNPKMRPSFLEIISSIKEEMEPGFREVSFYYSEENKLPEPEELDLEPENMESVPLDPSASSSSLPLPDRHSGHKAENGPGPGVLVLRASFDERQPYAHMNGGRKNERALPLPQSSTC
Experimental: The enzyme substrate poly (glutamic acid, tyrosine)4:1 (Sigma) was diluted with potassium-free PBS (10 mM sodium phosphate buffer, 150 mM NaCl, pH 7.2-7.4) to 20 μg/mL, plate coated with 125 μL/well, reacted for 12-16 hours at 37° C. After the liquid in the wells was discarded, the plates were washed three times with 200 μL/well of T-PBS (PBS containing 0.1% Tween-20), and each time for 5 minutes, and then dried for 1-2 hours in an oven at 37° C. 50 μL of ATP solution diluted with reaction buffer (50 mM HEPES pH 7.4, 50 mM MgCl2, 5 mM MnCl2, 0.2 mM Na3VO4, 1 mM DTT) was added into each well and the final concentration was 5 μM. The compounds were diluted with 1% DMSO to suitable concentrations and were added at 10 μL/well. Then different types of tyrosine kinase proteins (including EGFR^wt, EGFR^T790M/L858R and IGF-1R, purchased from Millipore) diluted with 40 μL of reaction buffer were added. The above reaction system was reacted for 1 hour at 37° C. shaking table (100 rpm). Control wells with no enzyme and control wells with DMSO solvent were set in each experiment. After the reaction was completed, the plates were washed three times with T-PBS. The anti-phosphotyrosine primary antibody PY99 (Santa Cruz) was added at 100 μL/well and the antibody was diluted with T-PBS containing BSA 5 mg/mL by 1:1000. The mixture was reacted for 0.5 h at 37° C. shaking table, the plates were washed three times with T-PBS. The secondary antibody which was horseradish peroxidase-labeled goat anti-mouse IgG was added at 100 μL/well (the antibody was diluted with T-PBS containing BSA 5 mg/mL by 1:2000). The mixture was reacted for 0.5 h at 37° C. shaking table, the plates were washed three times with T-PBS. 2 l/mL of OPD coloring solution was added at 100 μL/well (diluted with 0.1 M citric acid-sodium citrate buffer (pH=5.4) containing 0.03% H2O2) and dark reacted for 1 to 10 minutes at 25° C. 2 M H2SO4 was added at 50 μL/well to terminate the reaction. Reading was carried out with an adjustable wavelength microplate enzyme-labeled instrument SPECTRA MAX 190 at 490 nm wavelength.
as §2

[2] = tested on: human epidermal carcinoma A431 cell line; test: SRB proliferation assay, A431 cells; format: cell-based; conditions: A-431, SRB, 72 h, read-out: IC50 A431
Experimental: as §3
Methods: sulforhodamine B (SRB) method, which was as follows: certain number of different tumor cells in logarithmic growth phase were inoculated on 96-well culture plates. After cultured for 24 h to cell adherence, different concentrations of the test compounds of the invention were added. Each concentration was provided with three wells, and a corresponding concentration of DMSO solvent control and a cell-free zeroing well were set. After the cells were treated with the medicine for 72 h, the culture medium was discarded and 100 μL of 10% pre-cooled trichloroacetic acid solution was added to fix the cells. After placed for 1 h at 4° C., it was washed for 5 times with distilled water and dried naturally. Then 100 μL SRB (4 mg/mL) (Sigma) solution was added and stained for 15 min at room temperature. The staining solution was discarded and washed for 5 times with 1% glacial acetic acid and dried. Finally, 150 μL of 10 mM Tris solution (pH 10.5) was added and the OD value was measured at 515 nm with adjustable wavelength microplate enzyme-labeled instrument (VERSAmax™, Molecular Device Corporation, Sunnyvale, Calif., USA).

T1 sequence (P00533 25-1210): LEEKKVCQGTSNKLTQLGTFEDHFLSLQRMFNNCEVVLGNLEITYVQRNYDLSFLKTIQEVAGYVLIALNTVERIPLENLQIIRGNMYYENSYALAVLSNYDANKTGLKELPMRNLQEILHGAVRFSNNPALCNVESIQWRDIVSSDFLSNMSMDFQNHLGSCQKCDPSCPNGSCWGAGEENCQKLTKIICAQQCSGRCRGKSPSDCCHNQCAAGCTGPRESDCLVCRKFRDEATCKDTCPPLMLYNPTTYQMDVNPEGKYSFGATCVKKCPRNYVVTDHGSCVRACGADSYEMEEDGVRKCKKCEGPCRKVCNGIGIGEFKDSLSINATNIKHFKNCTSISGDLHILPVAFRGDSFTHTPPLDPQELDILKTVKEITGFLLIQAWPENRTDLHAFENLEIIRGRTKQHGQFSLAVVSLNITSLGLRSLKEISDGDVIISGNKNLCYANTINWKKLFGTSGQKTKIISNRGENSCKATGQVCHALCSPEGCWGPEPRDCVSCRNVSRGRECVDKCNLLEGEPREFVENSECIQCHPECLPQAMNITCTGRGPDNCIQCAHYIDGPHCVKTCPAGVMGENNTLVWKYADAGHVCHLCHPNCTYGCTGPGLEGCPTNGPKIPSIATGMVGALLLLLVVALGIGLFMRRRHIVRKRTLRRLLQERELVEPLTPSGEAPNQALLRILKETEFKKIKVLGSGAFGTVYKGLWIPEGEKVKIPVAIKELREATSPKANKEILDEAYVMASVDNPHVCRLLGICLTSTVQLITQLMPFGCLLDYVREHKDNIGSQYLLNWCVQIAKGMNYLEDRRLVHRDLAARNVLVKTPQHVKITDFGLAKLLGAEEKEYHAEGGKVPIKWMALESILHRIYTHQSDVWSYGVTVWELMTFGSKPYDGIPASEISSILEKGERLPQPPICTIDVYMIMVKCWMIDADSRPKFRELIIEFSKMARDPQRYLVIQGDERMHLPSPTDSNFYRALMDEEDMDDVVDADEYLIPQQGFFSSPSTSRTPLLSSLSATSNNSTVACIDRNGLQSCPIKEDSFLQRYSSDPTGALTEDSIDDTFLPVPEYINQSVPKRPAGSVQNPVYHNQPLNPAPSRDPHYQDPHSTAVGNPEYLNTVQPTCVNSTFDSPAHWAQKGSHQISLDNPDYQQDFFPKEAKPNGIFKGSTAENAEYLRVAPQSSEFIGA

SMILES | IC50 (EGFR^wt) | IC50 (EGFR^T790M/L858R) | kinase inhibitory activity (in words) (EGFR^T790M/L858R; summary of Table 1) | IC50 [1] | IC50 (IGF-1R) | IC50 [2]
C=CC(=O)Nc1cc(Nc2ncc(Cl)c(Nc3ccc4ccccc4c3)n2)c(OC)cc1N1CCN(C)CC1 [CCB120115, N-((5-((5-chloro-4-((naphthalen-2-yl)amino))pyrimidin-2-yl)amino)-2-(4-methylpiperazine)-4-methoxyphenyl)acrylamide] | 40.3 nM | 1.6 nM | potent | 16 nM | 28.5 nM | 2590 nM
COc1ccc(NC(=O)/C=C/CN(C)C)cc1Nc1ncc(OC)c(Nc2ccc3ccccc3c2)n1 [CCB145268, (E)-N-((3-((5-methoxy-4-((naphthalen-2-yl)amino))pyrimidin-2-yl)amino)-4-methoxyphenyl)-4-(dimethylamino)-2-butenamide] | 225 nM | 102 nM |  | 1160 nM | 182 nM | 1110 nM
COc1ccc(NC(=O)/C=C/CN(C)C)cc1Nc1ncc(C)c(Nc2ccc3ccccc3c2)n1 [CCB145289, (E)-N-((3-((5-methyl-4-((naphthalen-2-yl)amino))pyrimidin-2-yl)amino)-4-methoxyphenyl)-4-(dimethylamino)-2-butenamide] | 232 nM | 72.9 nM |  | 1000 nM | 103 nM | 839 nM
COc1ccc(NC(=O)/C=C/CN(C)C)cc1Nc1ncc(Cl)c(N(C)c2ccc3ccccc3c2)n1 [CCB145295, (E)-N-((3-((5-chloro-4-(N-methyl-(naphthalen-2-yl)amino))pyrimidin-2-yl)amino)-4-methoxyphenyl)-4-(dimethylamino)-2-butenamide] | 93.9 nM | 47.2 nM |  | 1180 nM | > 1000 nM | 1080 nM
Cc1ccc(Nc2ncc(Cl)c(Nc3ccc4ccccc4c3)n2)cc1NC(=O)/C=C/CN(C)C [CCB145346, (E)-N-((5-((5-chloro-4-((naphthalen-2-yl)amino))pyrimidin-2-yl)amino)-2-methylphenyl)-4-(dimethylamino)-2-butenamide] | 1150 nM | 56.2 nM |  | 598 nM | 200 nM | 1040 nM
Cc1cc(NC(=O)/C=C/CN(C)C)cc(Nc2ncc(Cl)c(Nc3ccc4ccccc4c3)n2)c1 [CCB145344, (E)-N-((3-((5-chloro-4-((naphthalen-2-yl)amino))pyrimidin-2-yl)amino)-5-methylphenyl)-4-(dimethylamino)-2-butenamide] | 613 nM | 46.3 nM |  | 925 nM | 36 nM | 775 nM
COc1ccc(NC(=O)/C=C/CN(C)C)cc1Nc1ncc(C(C)C)c(Nc2ccc3ccccc3c2)n1 [CCB145283, (E)-N-((3-((5-isopropyl-4-((naphthalen-2-yl)amino))pyrimidin-2-yl)amino)-4-methoxyphenyl)-4-(dimethylamino)-2-butenamide] | 2290 nM | 151 nM |  | 860 nM | 85.2 nM | 1040 nM
Cc1ccc(NC(=O)/C=C/CN(C)C)cc1Nc1ncc(Br)c(Nc2ccc3ccccc3c2)n1 [CCB145339, (E)-N-((3-((5-bromo-4-((naphthalen-2-yl)amino))pyrimidin-2-yl)amino)-4-methylphenyl)-4-(dimethylamino)-2-butenamide] | 4480 nM | 73.2 nM |  | 959 nM | 48.3 nM | 2190 nM
CN(C)C/C=C/C(=O)Nc1cccc(Nc2ncc(Br)c(Nc3ccc4ccccc4c3)n2)c1 [CCB145335, (E)-N-((3-((5-bromo-4-((naphthalen-2-yl)amino))pyrimidin-2-yl)amino)phenyl)-4-(dimethylamino)-2-butenamide] | 3890 nM | 35.7 nM |  | 2480 nM | 90.6 nM | 2590 nM
COc1cc(F)c(NC(=O)/C=C/CN(C)C)cc1Nc1ncc(Br)c(Nc2ccc3ccccc3c2)n1 [CCB145381, (E)-N-((5-((5-bromo-4-((naphthalen-2-yl)amino))pyrimidin-2-yl)amino)-2-fluoro-4-methoxyphenyl)-4-(dimethylamino)-2-butenamide] | 3540 nM | 7.5 nM |  | 508 nM | 102 nM | 1790 nM
COc1ccc(NC(=O)/C=C/CN(C)C)cc1Nc1ncc(Cl)c(Nc2ccc3ncccc3c2)n1 [CCB145213, (E)-N-((3-((5-chloro-4-((quinolin-6-yl)amino))pyrimidin-2-yl)amino)-4-methoxyphenyl)-4-(dimethylamino)-2-butenamide] | 615 nM | 43.5 nM |  | 240 nM | 37.1 nM | 857 nM
Cc1cc(NC(=O)/C=C/CN(C)C)cc(Nc2ncc(Br)c(Nc3ccc4ccccc4c3)n2)c1 [CCB145342, (E)-N-((3-((5-bromo-4-((naphthalen-2-yl)amino))pyrimidin-2-yl)amino)-5-methylphenyl)-4-(dimethylamino)-2-butenamide] | 1880 nM | 44.2 nM |  | 1260 nM | 127 nM | 942 nM
